pEC50: −log10 of the molar value.
Target: T1, NK-3 receptor (HEK293 stably expressing NK3) (Homo sapiens, UniProt P29371)
T1 construct: expressed in transfected cells
T1 sequence (P29371 1-465): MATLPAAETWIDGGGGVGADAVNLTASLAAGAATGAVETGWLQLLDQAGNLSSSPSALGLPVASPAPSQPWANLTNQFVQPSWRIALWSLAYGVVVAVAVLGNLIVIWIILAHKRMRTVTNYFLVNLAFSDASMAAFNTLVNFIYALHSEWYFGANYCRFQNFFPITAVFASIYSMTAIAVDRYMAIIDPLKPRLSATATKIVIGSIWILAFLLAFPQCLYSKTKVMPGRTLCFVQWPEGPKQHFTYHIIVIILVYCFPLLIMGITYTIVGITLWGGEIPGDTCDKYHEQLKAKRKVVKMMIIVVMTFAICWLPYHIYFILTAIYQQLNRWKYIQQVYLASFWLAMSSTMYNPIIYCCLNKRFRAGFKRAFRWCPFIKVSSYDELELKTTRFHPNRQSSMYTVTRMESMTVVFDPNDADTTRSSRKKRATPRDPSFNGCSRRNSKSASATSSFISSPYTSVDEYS
Test: Calcium mobilization assay (FLIPR): enhancement of the Neurokinin B agonist response
Type: cell-based
Conditions: for pEC50: agonist Neurokinin B with or without enhancer, Fluo-4 fluorescence, read-out: EC50 (efficacy as allosteric positive modulator of NK-3 receptor); for fold increase of the Neurokinin B agonistic effect: value in parentheses after EC50
Protocol: Calcium mobilization assay: HEK293 stably expressing NK3 were seeded at a density of 50,000 cells into poly-D-lysine coated 96-well blackwall, clear-bottom microtiter plates (Becton Dickinson Labware, Bedford, Mass.). One day later, the medium was removed, and 100 μl loading medium [HBSS without phenol red, supplemented with 20 mM HEPES-acid, and 2 μM Fluo-4AM solubilized in 0.5 mM Pluronic F-127/DMSO (Molecular Probes, Leiden, The Netherlands)] was added. Cells were loaded for 1 h at 37° C., washed twice with 150 μl assay buffer (loading buffer without Fluo-4 AM), and then 260 μl assay buffer was added. Cells were further pre-incubated at room temperature before adding the agonist Neurokinin B with or without enhancer in 50 μl assay buffer and then measured on a T-channel fluorimetric imaging plate reader (FLIPR, Molecular Devices, Sunnyvale, Calif.). Maximum change in fluorescence over baseline was used to determine agonist response.
The efficacy as allosteric positive modulators of neurokinin 3 (NK-3) receptors is given in the table below as EC50 and fold increase of the Neurokinin B agonistic effect. The EC50 of preferred compounds is <5.0 μM.

| Compound | pEC50 | fold increase of the Neurokinin B agonistic effect |
| --- | --- | --- |
| Cc1cc(Cl)ccc1OC(C)C(=O)N[C@H]1CC[C@@H](n2cc(C(=O)N3CCCC3)nn2)CC1 (relative stereo) [Example 4, 2-(4-Chloro-2-methyl-phenoxy)-N-{cis-4-[4-(pyrrolidine-1-carbonyl)-[1,2,3]triazol-1-yl]-cyclohexyl}-propionamide] | 6.25 | 1.7 fold |
| O=C(Cc1c(F)cccc1Cl)N[C@H]1CC[C@@H](n2cc(C(=O)N3CCCC3)nn2)CC1 [Example 1, 2-(2-Chloro-6-fluoro-phenyl)-N-{cis-4-[4-(pyrrolidine-1-carbonyl)-[1,2,3]triazol-1-yl]-cyclohexyl}-acetamide] | 5.43 | 2.3 fold |
| Cc1cccc(-c2cccc(C(=O)N[C@H]3CC[C@@H](n4cc(C(=O)N5CCCC5)nn4)CC3)c2)c1 [Example 2, 3′-Methyl-biphenyl-3-carboxylic acid {cis-4-[4-(pyrrolidine-1-carbonyl)-[1,2,3]triazol-1-yl]-cyclohexyl}-amide] | 6.70 | 1.5 fold |
| O=C(N[C@H]1CC[C@@H](n2cc(C(=O)N3CCCC3)nn2)CC1)c1cccc(-c2ccc(F)cc2)c1 [Example 3, 4′-Fluoro-biphenyl-3-carboxylic acid {cis-4-[4-(pyrrolidine-1-carbonyl)-[1,2,3]triazol-1-yl]-cyclohexyl}-amide] | 6.07 | 1.6 fold |
| COc1ccccc1C(=O)N[C@H]1CC[C@@H](n2cc(C(=O)N3CCCC3)nn2)CC1 [Example 6, 2-Methoxy-N-{cis-4-[4-(pyrrolidine-1-carbonyl)-[1,2,3]triazol-1-yl]-cyclohexyl}-benzamide] | 5.38 | 3.2 fold |
| COc1ccc(C(=O)N[C@H]2CC[C@@H](n3cc(C(=O)N4CCCC4)nn3)CC2)cc1OC [Example 7, 3,4-Dimethoxy-N-{cis-4-[4-(pyrrolidine-1-carbonyl)-[1,2,3]triazol-1-yl]-cyclohexyl}-benzamide] | 5.35 | 5.6 fold |
| O=C(N[C@H]1CC[C@@H](n2cc(C(=O)N3CCCC3)nn2)CC1)c1ccc(Cl)cc1 [Example 9, 4-Chloro-N-{cis-4-[4-(pyrrolidine-1-carbonyl)-[1,2,3]triazol-1-yl]-cyclohexyl}-benzamide] | 5.64 | 2.2 fold |
| O=C(c1cn([C@H]2CC[C@@H](NC(=O)C3(c4c(F)cccc4Cl)CCCC3)CC2)nn1)N1CCCC1 [Example 17, 1-(2-Chloro-6-fluoro-phenyl)-cyclopentanecarboxylic acid {cis-4-[4-(pyrrolidine-1-carbonyl)-[1,2,3]triazol-1-yl]-cyclohexyl}-amide] | 6.11 | 1.8 fold |
| O=C(Cc1c(F)cccc1Cl)N[C@H]1CC[C@@H](n2cc(C(=O)Nc3ccccc3)nn2)CC1 [Example 19, 1-{cis-4-[2-(2-Chloro-6-fluoro-phenyl)-acetylamino]-cyclohexyl}-1H-[1,2,3]triazole-4-carboxylic acid phenylamide] | 5.74 | 1.6 fold |
